Series [1] in a line: UV spectrophotometric analysis of compounds in solution. The following applies: for ʎmax: 10 µg/mL solution, DMSO diluted in MeOH; for Ɛ (molar extinction coefficient): at ʎmax, Lambert–Beer equation. The format is physicochemical. The protocol: The synthesized compounds were solubilised in DMSO and diluted in MeOH, and the absorbance of the 10 µg/mL solution was measured between 290–400 nm with a UV-Vis spectrophotometer (SHIMADZU UV-2600 240 V, 1 cm quartz cell at 1 nm intervals). The absorbance at wavelength λ is related to the transmittance T(λ) via the Equation (1): A(λ) = −Log[T(λ)](1) where T(λ) is the fraction of incident irradiance transmitted by the sample. […]
The molar extinction coefficient was calculated with the absorbance recorded at the ʎmax applying the Lambert–Beer equation.

Series [2] is described as follows: DPPH radical scavenging activity. Format: biochemical. As to conditions: mean ± SD; for DPPH Inhibition %: 1 mg/mL. The method, then:
For all the compounds, 0.750 mL of a DMSO-MeOH solution mixed with 1.5 mL of DPPH solution (0.004%) in MeOH was analysed. The samples were kept in the dark at room temperature for 30 min and then analysed with a spectrophotometer by reading the absorbance at 517 nm (lambda max of the absorption spectrum of the DPPH radical). Equation (5) was used to obtain the percentage inhibition (%) of the radical: DPPH radical-scavenging capacity (%) = [1 − (A1 − A2)/A0] × 100%(5) where A2 is the blank (MeOH), and A1 and A0 are, respectively, the recorded absorbances of the sample and control (0.750 MeOH and 1.5 mL DPPH solution), directly proportional to the concentration of residual DPPH. An initial screening was performed by testing all compounds at a concentration of 1 mg/mL (Trolox® was used as the standard); subsequently, compounds showing >90% radical inhibition were further tested to calculate their IC50 value (expressed in µg/mL). Ferulic acid was used as positive control. A linear regression was performed to calculate the sample concentration able to eliminate 50% of DPPH free radicals.
(In general: The DPPH test is a chemical assay of radical scavenging.)

A further series in a line: ORAC assay. The format is biochemical. As to conditions: Trolox equivalents; mean ± SD. The method, then: The ORAC assay was performed based on the previously modified Hong procedure. The sodium salt of fluorescein (85 nM) was used as a target for free radical attack with 2,2′-azobis(2-amidinopropane) dichloride (AAPH) as a peroxyl radical generator in the final assay mixture (total volume of 0.2 mL). The test involves a calibration curve of Trolox (standard control) with different concentrations (40 to 240 μM). The compounds tested were first dissolved in DMSO:MeOH and then diluted in phosphate buffer solution pH 7.4. Fluorescence measurements were performed at 37 °C and recorded at 5-min intervals up to 30 min after the addition of AAPH. ORAC values were calculated as the difference in areas under the fluorescein quenching curves between the blank and the sample and were expressed as µmol Trolox equivalents (TE) per gram of dried sample.

Series [3] concerns the target T1, 5-LO in A23187-stimulated human PMNL (Homo sapiens, UniProt P09917).
T1 construct: Freshly isolated PMNL (1 × 10^6 cells/mL) in PBS buffer pH 7.4; endogenous in cells; host or cells: primary human PMNL (neutrophils) isolated from blood
T1 sequence (P09917 1-674): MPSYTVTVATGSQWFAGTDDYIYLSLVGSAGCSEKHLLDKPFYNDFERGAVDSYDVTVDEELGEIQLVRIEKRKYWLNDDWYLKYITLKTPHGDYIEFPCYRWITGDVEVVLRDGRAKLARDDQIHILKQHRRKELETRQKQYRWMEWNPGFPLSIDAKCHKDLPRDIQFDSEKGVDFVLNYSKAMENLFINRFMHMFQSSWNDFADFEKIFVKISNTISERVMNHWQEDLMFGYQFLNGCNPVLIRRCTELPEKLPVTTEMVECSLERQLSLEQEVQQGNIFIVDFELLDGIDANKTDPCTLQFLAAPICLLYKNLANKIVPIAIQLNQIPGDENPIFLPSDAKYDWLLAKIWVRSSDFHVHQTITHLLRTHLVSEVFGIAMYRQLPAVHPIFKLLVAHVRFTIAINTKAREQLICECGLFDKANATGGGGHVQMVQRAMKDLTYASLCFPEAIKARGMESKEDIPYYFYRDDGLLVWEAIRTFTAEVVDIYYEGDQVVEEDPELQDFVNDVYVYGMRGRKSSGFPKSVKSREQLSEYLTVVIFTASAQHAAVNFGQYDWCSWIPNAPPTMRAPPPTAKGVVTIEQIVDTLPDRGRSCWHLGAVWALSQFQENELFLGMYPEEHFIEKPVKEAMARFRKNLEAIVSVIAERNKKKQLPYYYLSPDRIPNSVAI
Briefly: 5-Lipoxygenase inhibition in a cell-based assay (PMNL). As to conditions: for remaining activity at 10 µM: PMNL, % relative to vehicle (DMSO), read-out: 5-LO Residual Activity (PMNL, 10 µM); for IC50: activated PMNL. The method, then:
Following blood density centrifugation and cell population separation, PMNL was recovered from the pellet after hypotonic lysis of erythrocytes. Freshly isolated PMNL (1 × 10^6 cells/mL) in PBS buffer pH 7.4 with glucose (1 mg/mL) and CaCl2 (1 mM) was pre-incubated with the test compounds for 10 min at 37 °C. Then, 5-lipoxygenase (5-LO) product formation was started by addition of 2.5 μM Ca^2+-ionophore A23187 plus 20 μM arachidonic acid. The reaction was stopped after 10 min at 37 °C with 1 mL of ice-cold methanol containing 200 ng PGB1 as internal standard. Major 5-LO products (LTB4, trans-LTB4, epi-trans-LTB4, and 5-HETE) were extracted by SPE using Sep-Pak C18 35 cc Vac Cartridges (Waters, Milford, MA, USA) and analysed by UPLC-MS/MS as described by Pein et al..

Marks after values point to notes of the source that are not given here.

Take `C(=C\c1nc2ccccc2s1)/c1ccccc1` [BZTst1, (E)-2-styrylbenzo[d]thiazole]: in series [1], the ʎmax was 335.0 nm and the “Ɛ (molar extinction coefficient)” value is 34,075.83 dm^3 mol^−1 cm^−1. The “DPPH Inhibition %” value in series [2] is listed as “<LOQ ^b”. Moreover, the ORAC result in the series “ORAC assay” is recorded as “<LOQ ^b”. Moreover, the remaining activity at 10 µM in series [3] worked out at 48.7 ± 10.2%.

For `Oc1ccc(/C=C/c2nc3ccccc3s2)cc1` [BZTst2, (E)-4-(2-(benzo[d]thiazol-2-yl)vinyl)phenol], in series [1], the ʎmax came out at 354.4 nm and the “Ɛ (molar extinction coefficient)” value was 30,835.44 dm^3 mol^−1 cm^−1. Moreover, the “DPPH Inhibition %” value in series [2] stood at 26.70 ± 0.83%. In the series “ORAC assay”, the ORAC was 11,614.64 ± 1184.06 µmolTE/g. In series [3], the remaining activity at 10 µM came to 22.9 ± 14.6% and it took 2.9 µM to reach half-maximal inhibition (IC50).

In the case of `COc1ccc(/C=C/c2nc3ccccc3s2)cc1` [BZTst3, (E)-2-(4-methoxystyryl)benzo[d]thiazole], in series [1], the ʎmax amounted to 351.0 nm and the “Ɛ (molar extinction coefficient)” value is 35,125.63 dm^3 mol^−1 cm^−1. The “DPPH Inhibition %” value in series [2] is given as “<LOQ ^b”. The ORAC in the series “ORAC assay” is 1077.84 ± 98.52 µmolTE/g. Also, in series [3], the remaining activity at 10 µM was 75.3 ± 19.7%.

Consider `Oc1ccc(/C=C/c2nc3ccccc3s2)cc1O` [BZTst4, (E)-4-(2-(benzo[d]thiazol-2-yl)vinyl)benzene-1,2-diol], for which, in series [1], the ʎmax is on record as 363.3 nm and the “Ɛ (molar extinction coefficient)” value is 22,070.71 dm^3 mol^−1 cm^−1. Also, the “DPPH Inhibition %” value in series [2] is recorded as 88.54 ± 0.47%. The “DPPH IC50 (sample concentration able to scavenge 50% of the DPPH radical)” value in series [2] (values in brackets) amounted to 10.46 ± 0.27 µg/mL. Further, in “ORAC assay”, the ORAC result is on record as “<LOQ ^b”. In series [3], the remaining activity at 10 µM turned out to be 0.79 ± 0.49% and the IC50 amounted to 0.7 µM.

As to `COc1ccc(/C=C/c2nc3ccccc3s2)cc1O` [BZTst5, (E)-5-(2-(benzo[d]thiazol-2-yl)vinyl)-2-methoxyphenol], in series [1], the ʎmax stood at 358.0 nm and the “Ɛ (molar extinction coefficient)” value is given as 22,513.37 dm^3 mol^−1 cm^−1. In addition, the “DPPH Inhibition %” value in series [2] came to 46.88 ± 0.60%. Moreover, the ORAC entry in “ORAC assay” was “<LOQ ^b”. The remaining activity at 10 µM in series [3] is 74 ± 25.8%.

As to `COc1cc(/C=C/c2nc3ccccc3s2)ccc1O` [BZTst6, (E)-4-(2-(benzo[d]thiazol-2-yl)vinyl)-2-methoxyphenol], in series [1], the ʎmax is 361.2 nm and the “Ɛ (molar extinction coefficient)” value is listed as 16,871.66 dm^3 mol^−1 cm^−1. Besides, the “DPPH Inhibition %” value in series [2] is listed as 18.86 ± 0.11 ^c %. In addition, in “ORAC assay”, the ORAC is 19,027.54 ± 46.67 µmolTE/g. In addition, in series [3], the remaining activity at 10 µM was 7.11 ± 4.9% and the IC50 is 0.95 µM.

Broadly, the IC50 is the concentration that inhibits the measured activity by half. High values mean weaker potency, low ones greater potency.

(Values after PMC11504387, “Synthesis and Biological Activity Assessment of 2-Styrylbenzothiazoles as Potential Multifunctional Therapeutic Agents” (Antioxidants, 2024).)
